Data from patent US20050222408A1, “Heterocyclic amides with anti-tuberculosis activity” (priority 2003, published 2005).
Converted amounts (≈) assume the structure as drawn. “Also recorded” adds a separate entry of the source. Read-outs that look alike come from different tables or passages of the source.

Tests used:
Vero cells = experiment: Cytotoxicity, alamar blue assay against Vero cells; format: cell-based; settings: for ToxIC50: unit not given; for IC50: Chlorocebus sabaeus, read-out: ToxIC50; for selectivity index (SI): summary b276
[1] = target: UDP-galactose mutase (Glf) (Mycobacterium tuberculosis, UniProt P9WIQ1); experiment: Microtitre plate based screen of Glf (enzymatic inhibition); format: biochemical
[2] = Maximum Tolerated Dose (MTD), single oral dose in mice; settings: escalating dose 100, 300 and 500 mg/kg by oral gavage
Description: An assay for Maximum Tolerated Dose (MTD) was also utilized. […] Three different concentrations are tested, generally at 100, 300 and 500 mg/kg. The latter dose is about twice to five times the dose used for efficacy testing of the compound in mice. After 7 days of observation the mice are sacrificed and the organs are studied for any adverse effects. In case of abnormalities the organs are fixed in formalin and given for extensive pathology analysis.
Maximum tolerated dosing was performed on these selected compounds. An escalating dose of drug (100, 300 and 500 mg/kg) was given to mice by oral gavage.

M. tuberculosis = format: in vivo, mice; settings: for viable M. tuberculosis, Spleen ± SEM: untreated controls 6.7 ± 0.16; for viable M. tuberculosis, Lungs ± SEM: untreated controls 8.0 ± 0.17
M. tuberculosis H37Ra = experiment: MIC against M. tuberculosis H37Ra, micro broth dilution in microtiter plates; settings: M. tuberculosis H37Ra; for TB MIC: Table 1; for TB MIC / MIC: 7 days at 37° C., MIC90; for MIC: Mycobacterium tuberculosis, H37RA, 168 h, read-out: TB MIC, Table 1
[3] = Table 1, Vero cells, alamar blue
[4] = Table 1, Vero cells, alamar blue, unit inferred

Sequence of UDP-galactose mutase (Glf) (P9WIQ1 whole entry): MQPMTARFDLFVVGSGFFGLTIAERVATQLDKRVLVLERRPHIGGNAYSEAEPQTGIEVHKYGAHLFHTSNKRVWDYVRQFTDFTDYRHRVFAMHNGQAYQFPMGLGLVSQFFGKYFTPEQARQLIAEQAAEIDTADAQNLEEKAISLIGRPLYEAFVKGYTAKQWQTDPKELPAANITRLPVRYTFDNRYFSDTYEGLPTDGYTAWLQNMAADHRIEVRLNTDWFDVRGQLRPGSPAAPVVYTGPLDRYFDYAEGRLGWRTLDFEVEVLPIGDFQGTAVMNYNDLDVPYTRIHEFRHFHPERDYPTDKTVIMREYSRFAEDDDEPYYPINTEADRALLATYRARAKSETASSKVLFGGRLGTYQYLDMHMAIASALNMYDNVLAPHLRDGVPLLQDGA

O=C(Nc1cccc(Cl)c1)c1ccc([N+](=O)[O-])o1 [Compound 10, 5-Nitro-furan-2-carboxylic acid(3-chloro-phenyl)-amide]
ToxIC50 (Vero cells; [3]): 6.86
Glf inhibition [1]: best inhibitors of Glf
Maximum tolerated dosing, effect observed [2]: no effect at the maximum dose
viable M. tuberculosis, Spleen ± SEM (M. tuberculosis; 300 mg/kg): 7.3 ± 0.12
viable M. tuberculosis, Lungs ± SEM (M. tuberculosis; 300 mg/kg): 8.3 ± 0.21

O=C(Nc1cccc(F)c1)c1ccc([N+](=O)[O-])o1 [Compound 12, 5-Nitro-furan-2-carboxylic acid(3-fluoro-phenyl)-amide]
ToxIC50 (Vero cells; [3]): 9.29
Maximum tolerated dosing, effect observed [2]: no effect at the maximum dose
viable M. tuberculosis, Spleen ± SEM (M. tuberculosis; 300 mg/kg): 7.0 ± 0.11
viable M. tuberculosis, Lungs ± SEM (M. tuberculosis; 300 mg/kg): 8.4 ± 0.24
TB MIC (M. tuberculosis H37Ra): 0.8 µg/mL

COc1cccc(NC(=O)c2ccc([N+](=O)[O-])o2)c1 [Compound 13, 5-Nitro-furan-2-carboxylic acid(3-methoxy-phenyl)-amide]
ToxIC50 (Vero cells; [3]): 18.63
Glf inhibition [1]: best inhibitors of Glf
Maximum tolerated dosing, effect observed [2]: some pathology at 500 mg/kg
viable M. tuberculosis, Spleen ± SEM (M. tuberculosis; 150 mg/kg): 7.2 ± 0.07
viable M. tuberculosis, Lungs ± SEM (M. tuberculosis; 150 mg/kg): 8.0 ± 0.3
TB MIC (M. tuberculosis H37Ra): 0.8 µg/mL

COc1ccc(CNC(=O)c2ccc([N+](=O)[O-])o2)cc1OC [Compound 23, 5-Nitro-furan-2-carboxylic acid 3,4-dimethoxy-benzylamide]
IC50 (Vero cells; Vero): 18.2 µg/mL (≈ 59.3 µM)
selectivity index (SI) (Vero cells): 90.9
Maximum tolerated dosing, effect observed [2]: no effect at the maximum dose
viable M. tuberculosis, Spleen ± SEM (M. tuberculosis; 300 mg/kg): 6.0 ± 0.19
viable M. tuberculosis, Lungs ± SEM (M. tuberculosis; 300 mg/kg): 6.5 ± 0.25
oral activity against M. tuberculosis in the mouse infection model (M. tuberculosis; oral): significant oral activity
anti-tuberculosis MIC activity (M. tuberculosis H37Ra): as active as ethambutol and streptomycin

CC(NC(=O)c1ccc([N+](=O)[O-])o1)c1ccccc1 (stereo not shown) [Compound 30, 5-Nitro-furan-2-carboxylic acid(1-phenyl-ethyl)-amide]
ToxIC50 (Vero cells; [3]): 23.59
TB MIC (M. tuberculosis H37Ra): 3.1 µg/mL

COc1ccc(CCNC(=O)c2ccc([N+](=O)[O-])o2)cc1OC [Compound 31, 5-Nitro-furan-2-carboxylic acid [2-(3,4-dimethoxy-phenyl)-ethyl]-amide]
IC50 (Vero cells; Vero): 27.4 µg/mL (≈ 85.7 µM)
MIC (M. tuberculosis H37Ra): 0.4 µg/mL (≈ 1.25 µM)

COc1cccc(NC(=O)c2ccc(Br)o2)c1 [Compound 33, 5-Bromo-furan-2-carboxylic acid(3-methoxy-phenyl)-amide]
IC50 (Vero cells; [4]): 61.2 µg/mL (≈ 207 µM)
MIC (M. tuberculosis H37Ra): 100 µg/mL (≈ 338 µM)

COc1cccc(NC(=O)c2ccc(Sc3ccccc3)o2)c1 [Compound 36, 5-Phenylsulfanyl-furan-2-carboxylic acid(3-methoxy-phenyl)-amide]
IC50 (Vero cells; [4]): 25.7 µg/mL (≈ 79 µM)
MIC (M. tuberculosis H37Ra): 25 µg/mL (≈ 76.8 µM)

O=C(NCc1ccc(N2CCN(Cc3ccccc3)CC2)cc1)c1ccc([N+](=O)[O-])o1 [Compound 66, 5-Nitro-furan-2-carboxylic acid 4-(4-benzyl-piperazin-1-yl)-benzylamide]
selectivity index (SI) (Vero cells): 1597
anti-tuberculosis MIC activity (M. tuberculosis H37Ra): extremely potent; also recorded: more active than isoniazid

NNC(=O)c1ccncc1 [Isoniazid, reference compound]
viable M. tuberculosis, Spleen ± SEM (M. tuberculosis; 25 mg/kg): 3.2 ± 0.21
viable M. tuberculosis, Lungs ± SEM (M. tuberculosis; 25 mg/kg): 5.5 ± 0.21

Cc1ncc([N+](=O)[O-])n1CCO [Metronidazole, reference compound]
viable M. tuberculosis, Spleen ± SEM (M. tuberculosis; 150 mg/kg): 6.9 ± 0.04
viable M. tuberculosis, Lungs ± SEM (M. tuberculosis; 150 mg/kg): 8.5 ± 0.18
